According to US12404242B2, “Compositions and methods for making and using small molecules in the treatment of cancer” (Reglagene, Inc., priority 2021, dated 2025):
Values after ≈ are worked out from the molar mass of the structure shown. Like-named read-outs stand apart in the source and are kept apart here.

How the values were obtained:
T98G cells = assay: Cell viability (AlamarBlue), T98G glioblastoma cells; format: cell-based; details: Homo sapiens, 72 hours of treatment
Protocol: (§1) In another exemplary method, half maximal effective concentration (EC50) was determined for some compounds and their isomers as disclosed herein in a variety of human cancer cell lines. In brief, cells from two prostate cancer cell lines (LNCaP, 22RV1), one glioblastoma cell line (U87), one breast cancer cell line (MCF7), a glioma cell line (LN18), a normal prostate cell line (RWPE1), and a glioblastoma cell line (T98G) were plated in a multi-well plate. After 24 hours, one of the compounds herein was added to the well at increasing concentrations. After 72 hours of treatment, cell viability was assessed using AlamrBlue® (Invitrogen) and fluorescence was read using the CLARIOstar Plus Multilabel Plate Reader (BMG Labtech). Samples were normalized to no treatment controls. EC50 values were determined using GraphPad Prism.

[1] = Kinetic solubility in aqueous PBS buffer (HPLC-MS); format: physicochemical; details: kinetic from dmso stock, DMSO stock mixed with aqueous PBS buffer, filtered, read-out: Kinetic Solubility
Method in brief: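 A concentrated DMSO stock was mixed with aqueous PBS buffer and filtered. The filtrate was quantified against an HPLC-MS calibration curve.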

LN18 cells = assay: Cell viability (AlamarBlue), LN18 glioma cells; format: cell-based; details: Homo sapiens, LN-18, 72 hours of treatment
Protocol: as §1

U87 cells = assay: Cell viability (AlamarBlue), U87 glioblastoma cells; format: cell-based, human; details: 72 hours of treatment
Method in brief: (§2)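 Cells were plated and, after 24 hours, exposed to the compound at increasing concentrations for 72 hours. Viability was measured by AlamarBlue fluorescence, normalized to untreated controls, and EC50 values were derived from the concentration-response data.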

tubulin = assay: Tubulin polymerization assay; format: biochemical; details: 5 uM (FIG. 41A, 41C) or 1 uM (FIG. 41B)
Protocol: FIG. 41A-41C represent exemplary experiments illustrating inhibition of tubulin polymerization. FIG. 41A illustrates effects of compounds 19, 73, 86, 93 and 94 at 5 uM concentration. FIG. 41B illustrates effects of compounds 93, 94, 95 and 96 at 1 uM concentration.
FIG. 41C illustrates effects of compounds 73, 86, 87 and 88 at 5 uM concentration in accordance with certain embodiments of the present disclosure. Colchicine and vincristine are positive controls.
FIG. 42A-42B represent exemplary experiments illustrating inhibition of tubulin polymerization. FIG. 42A illustrates effects of compound 19 at 0.3, 1, 3 and 6 uM concentrations.
FIG. 42B illustrates effects of compound 73 at […] concentration in accordance with certain embodiments of the present disclosure. Colchicine and nocodazole are positive controls.
In another exemplary method, the effect of the compounds herein on tubulin polymerization was determined. FIG. 41A illustrates effects of compounds 19, 73, 86, 93 and 94 at 5 uM concentration, FIG. 41B illustrates effects of compounds 93, 94, 95 and 96 at 1 uM concentration, or FIG. 41C illustrates effects of compounds 87 and 88 at 5 uM concentration in accordance with certain embodiments of the present disclosure. Colchicine and vincristine are positive controls.
The dose dependent effect of compounds 19 and 73 on tubulin polymerization was also determined. FIG. 42A illustrates effects of compound 19 at 0.3, 1, 3 and 6 uM concentrations, and FIG. 42B illustrates effects of compound 73 at 0.1, 0.3, 1, 3 and 5 uM concentration in accordance with certain embodiments of the present disclosure. Colchicine and nocodazole are positive controls.

MCF7 cells = assay: Cell viability (AlamarBlue), MCF7 breast cancer cells; format: cell-based; details: Homo sapiens, 72 hours of treatment
Protocol: as §1

RWPE1 cells = assay: Cell viability (AlamarBlue), RWPE1 normal prostate cells; format: cell-based, human; design: key to EC50 (μM) in RWPE1 cells: Inactive: less than 50% inhibition at the highest concentration tested at 50 μM; details: 72 hours of treatment, normal prostate cell line
Method in brief: as §2

22RV1 cells = assay: Cell viability (AlamarBlue), 22RV1 prostate cancer cells; format: cell-based, human; details: 72 hours of treatment
Method in brief: as §2

LNCaP cells = assay: Cell viability (AlamarBlue), LNCaP prostate cancer cells; format: cell-based, human; details: Homo sapiens, LNCaP, 72 h, 72 hours of treatment
Method in brief: as §2

[2] = Plasma and brain tissue levels after oral dose, brain tumor xenograft mice; format: in vivo, CrTac:NCr-Foxn1nu athymic nude mouse; details: CrTac:NCr-Foxn1nu athymic nude, single oral dose 100 mg/kg
Protocol: In another exemplary method, levels of Compound 19A were determined in plasma and brain tissue following administration. For these studies, a CrTac:NCr-Foxn1^nu athymic nude mouse strain was used as an acceptable mouse model. For these experiments, CrTac:NCr-Foxn1^nu athymic nude mouse received […] of tumors implanted into the brain tissues. Compound 19A was then administered to the mice orally as a homogenous suspension in DMSO: (PEG 400: PVP=95:5)=1:4. A single dose of 100 mg/kg of Compound 19A was administered in this manner. Concentrations of the Compound 19A in plasma and brain tissue (after extraction) were measured using HPLC-MS quantitation.
FIG. 51 and Table 8 illustrate increasing concentrations of Compound 19A in both the left, healthy brain tissue and the right experimental brain tissue containing tumor as well as in plasma over time.

[3] = test system: LN18 glioblastoma cancer cells; assay: Combination with Temozolomide, Bliss synergy in LN18 cells; format: cell-based; details: Temozolomide 0 to 1000 uM, compound 0.625 to 10 uM
Protocol: Synergy was calculated with the Bliss independence model. Compounds were combined at concentrations of 0 to 1000 uM for Temozolomide and 0.625 to 10 uM for compounds 19 and 59.

[4] = test system: 22Rv1 prostate cancer cells; assay: Combination with Rabusertib, Bliss synergy in 22Rv1 cells; format: cell-based; details: Rabusertib 0 to 30 uM, compound 0.625 to 5 uM
Protocol: Synergy was calculated with the Bliss independence model. Compounds were combined at concentrations of 0 to 30 uM for Rabusertib and 0.625 to 5 uM for compounds 73 and 76.

[5] = mouse, brain tissue (left, healthy), read-out: Brain Tissue Healthy, Left concentration
[6] = mouse, brain tissue (right, containing tumor), read-out: Brain Tissue Tumor, right concentration
[7] = plasma, tumor-bearing nude mouse, read-out: Plasma concentration

Row | Compound | solubility kinetic [1] | EC50 (LN18 cells) | EC50 (U87 cells; Homo sapiens, U-87 MG, 72 h) | effect on tubulin polymerization (tubulin) | further results
1 | COC1CC(C(=O)NC(=O)Nc2ccc(Oc3ccc(Cl)cn3)c(C)c2)C1 (single isomer, unassigned) [Compound 19A, 1-{4-[(5-chloropyridin-2-yl)oxy]-3-methylphenyl}-3-(3-methoxycyclobutanecarbonyl) urea] | – | – | – | – | EC50 (MCF7 cells): 2.8 µM; EC50 (μM) in RWPE1 cells (RWPE1 cells): Inactive; EC50 (22RV1 cells): 0.95 µM; EC50 (LNCaP cells): 0.87 µM; concentration at 0.5 h [2, 5]: 767 ng/g; concentration at 1 h [2, 5]: 1230 ng/g; concentration at 6 h [2, 5]: 1460 ng/g; concentration at 0.5 h [2, 6]: 828 ng/g; concentration at 1 h [2, 6]: 1460 ng/g; concentration at 6 h [2, 6]: 1520 ng/g; concentration at 0.5 h [2, 7]: 973 ng/mL; concentration at 1 h [2, 7]: 1340 ng/mL; concentration at 6 h [2, 7]: 1510 ng/mL; EC50 (U87 cells): 2.2 µM
2 | COC1CC(C(=O)NC(=O)Nc2ccc(Oc3nc(C)c(C)s3)c(C)c2)C1 (stereo not shown) [Compound 59, N-((4-((4,5-dimethylthiazol-2-yl)oxy)-3-methylphenyl)carbamoyl)-3-methoxycyclobutane-1-carboxamide] | – | – | 0.002 µM | – | Bliss Synergy value, combination with Temozolomide ([3]; LN18 cells, Bliss independence model): 20.0; effect of combination with Temozolomide on cancer cell viability [3]: synergistic decrease in cancer cell viability; EC50 (22RV1 cells; Homo sapiens, 22Rv1, 72 h): 0.08 µM; EC50 (LNCaP cells): 0.27 µM
3 | COC12CC(C(=O)NC(=O)Nc3cc(C)c(Oc4ccc(F)cn4)c(F)c3)(C1)C2 [Compound 91, N-((3-fluoro-4-((5-fluoropyridin-2-yl)oxy)-5-methylphenyl)carbamoyl)-3-methoxybicyclo[1.1.1]pentane-1-carboxamide] | – | 0.087 µM | 0.63 µM | – | EC50 (T98G cells): 0.167 µM
4 | COC12CC(C(=O)NC(=O)Nc3cc(C)c(Oc4ncc(Cl)cn4)c(F)c3)(C1)C2 [Compound 90, N-((4-((5-chloropyrimidin-2-yl)oxy)-3-fluoro-5-methylphenyl)carbamoyl)-3-methoxybicyclo[1.1.1]pentane-1-carboxamide] | 2.17 µM (≈ 0.913 µg/mL) | 0.034 µM | 0.065 µM | – | EC50 (T98G cells): 0.0384 µM
5 | COC1CC(C(=O)NC(=O)Nc2ccc(C)c(Oc3ccc(F)cn3)c2)C1 (stereo not shown) [Compound 95, N-((3-((5-fluoropyridin-2-yl)oxy)-4-methylphenyl)carbamoyl)-3-methoxycyclobutane-1-carboxamide] | 7.2 µM (≈ 2.69 µg/mL) | – | 0.014 µM | significantly inhibit tubulin polymerization | –
6 | COC1CC(C(=O)NC(=O)Nc2cc(C)c(Oc3ccc(Cl)cn3)c(F)c2)C1 (stereo not shown) [Compound 76, N-((4-((5-chloropyridin-2-yl)oxy)-3-fluoro-5-methylphenyl)carbamoyl)-3-methoxycyclobutane-1-carboxamide] | – | – | 0.1 µM | – | Bliss Synergy value, combination with Rabusertib ([4]; 22Rv1 cells, Bliss independence model): 15.3; effect of combination with Rabusertib on cancer cell viability [4]: synergistic decrease in cancer cell viability
7 | COC1CC(C(=O)NC(=O)Nc2ccc(C)c(Oc3ncccn3)c2)C1 (stereo not shown) [Compound 96, 3-methoxy-N-((4-methyl-3-(pyrimidin-2-yloxy)phenyl)carbamoyl)cyclobutane-1-carboxamide] | 14.8 µM (≈ 5.27 µg/mL) | – | 0.035 µM | significantly inhibit tubulin polymerization | –

The next lines start with results.

Row | solubility kinetic [1] | EC50 (LN18 cells) | EC50 (U87 cells; Homo sapiens, U-87 MG, 72 h) | Compound | effect on tubulin polymerization (tubulin) | further results
8 | 5.8 µM (≈ 2.14 µg/mL) | 0.011 µM | 0.02 µM | COC12CC(C(=O)NC(=O)Nc3ccc(C)c(Oc4ncccn4)c3)(C1)C2 [Compound 97, 3-methoxy-N-((4-methyl-3-(pyrimidin-2-yloxy)phenyl)carbamoyl)bicyclo[1.1.1]pentane-1-carboxamide] | – | EC50 (T98G cells): 0.026 µM
9 | 11.8 µM (≈ 4.19 µg/mL) | – | 0.045 µM | COC1CC(C(=O)NC(=O)Nc2ccc(C)c(Oc3ccccn3)c2)C1 (stereo not shown) [Compound 94, 3-methoxy-N-((4-methyl-3-(pyridin-2-yloxy)phenyl)carbamoyl)cyclobutane-1-carboxamide] | significantly inhibit tubulin polymerization | –
10 | 27.5 µM (≈ 10.1 µg/mL) | – | 1.2 µM | COC12CC(C(=O)NC(=O)Nc3ccc(Oc4ncccn4)c(C)c3)(C1)C2 [Compound 87, 3-methoxy-N-((3-methyl-4-(pyrimidin-2-yloxy)phenyl)carbamoyl)bicyclo[1.1.1]pentane-1-carboxamide] | significantly inhibit tubulin polymerization | –
11 | – | 0.01 µM | 0.16 µM | COC12CC(C(=O)NC(=O)Nc3ccc(Oc4ccc(Cl)cn4)c(C)c3)(C1)C2 [Compound 84, N-((4-((5-chloropyridin-2-yl)oxy)-3-methylphenyl)carbamoyl)-3-methoxybicyclo[1.1.1]pentane-1-carboxamide] | – | –
12 | – | – | 0.26 µM | COC12CC(C(=O)NC(=O)Nc3ccc(Oc4ccccn4)c(C)c3)(C1)C2 [Compound 86, 3-methoxy-N-((3-methyl-4-(pyridin-2-yloxy)phenyl)carbamoyl)bicyclo[1.1.1]pentane-1-carboxamide] | significantly inhibit tubulin polymerization | –
13 | 10.9 µM (≈ 4.21 µg/mL) | – | 1.45 µM | COC12CC(C(=O)NC(=O)Nc3ccc(Oc4ncc(F)cn4)c(C)c3)(C1)C2 [Compound 88, N-((4-((5-fluoropyrimidin-2-yl)oxy)-3-methylphenyl)carbamoyl)-3-methoxybicyclo[1.1.1]pentane-1-carboxamide] | significantly inhibit tubulin polymerization | –
